Patent US7714014B2, “Targeting GLI proteins in human cancer by small molecules” (The Regents of the University of California, priority 2005, dated 2010)

Key:
[1] = tested on: H1299 (NSCLC); assay: Apoptosis analysis (Annexin V FITC, flow cytometry); assay type: cell-based, human; details: 3 days
Description: Apoptosis was analyzed by using an Annexin V FITC Apoptosis Detection Kit (Biosource, Camarillo, Calif.), according to the manufacturer's protocol. After treatment with different small molecule compounds at various concentrations for about 3 days, cells were harvested by trypsinization, stained and immediately analyzed by flow cytometry (FACScan; Decton Dickinson, Franklin Lake, N.J.). Early apoptotic cells with exposed phosphatidylserine but intact cell membranes will bind to Annexin V-FITC, but not propidium iodide (PI). Cells in necrotic or late apoptotic stages will be labeled with both Annexin V-FITC and PI. “% apoptotic cells” or “% apoptosis” refers to the combined early and late apoptotic cells.
Flow cytometry was also used to examine apoptosis in several NSCLC cell lines after treatment with small molecule compounds of the invention.

[2] = tested on: NSCLC cell lines H1299 and A549, colon cancer cell lines SW480 and HCT116; assay: Cell survival assay (crystal violet), initial screening; assay type: cell-based, human; details: 100 μM, all cancer cell lines tested
Description: (§1) Typically, the small molecule compounds of the present invention were dissolved in DMSO at a concentration of 30 mM. The small molecule compounds were then tested under cell culture conditions at different concentrations ranging from 0, 10, 30, 50, to 100 uM. To determine cell survival after treatment, the cells were incubated with the small molecule compounds in 6-well plates for about 3 days. After removal of the cell culture medium, 1-ml of 0.5% crystal violet solution (prepared in 20% ethanol and 20% methanol) was added to stain the cells for 5 min. Then the crystal violet solution was rinsed clean with tap water. Cell survival was estimated based on the density of crystal stained plates.
Initial screening of small molecule compounds of the present invention was performed using the cell-based assays described herein. […] Two NSCLC cell lines, H1299 and A549, and two colon cancer cell lines, SW480 and HCT116, were incubated with small molecule compounds FN1-1, FN1-2, FN1-3; FN1-5 and FN2-1 at a concentration of 100 μM. DMSO was used as a control. […] This assay identified the small molecule compound FN1-5 inhibiting GLI transcription activation domain (TAF-binding domain, TAFbd), as an active hit compound.

[3] = Pharmacokinetic analysis in mice (i.p. injection); assay type: in vivo, mouse
Description: Three mice were i.p. injected in the abdomens with small molecule compounds FN1-5 at a dose of 30 mg/kg body weight. Then plasma was collected from the tail-vein of each mouse at 10 min, 2 hours, 6 hours and 24 hours after FN1-5 injection.
Similarly, the pharmacokinetic properties of small molecule compound FN1-8 were analyzed (FIG. 21B). Comparing the uptake of FN1-8 to FN1-5, the uptake of FN1-5 after i.p injection seems to be better, by about 2 fold.

[4] = tested on: NSCLC cells A549, H358, and H322; assay: Time course of cell survival (flow cytometry); assay type: cell-based, human
Description: The time course of cell survival in NSCLC cells A549, H358, and H322 after administration of small molecule compound FN1-8 was analyzed. A549 cells were incubated with 10 μM and 20 μM FN1-8, and H358 and H322 cells were incubated with 15 μM and 30 μM FN1-8, respectively. Then flow cytometry was used to examine the percentage of living and dead cells at different time points. […] In H358 cells, the cell killing effect of FN1-8 is already apparent by 1 day, and in H322 cells by 2 days. (data not shown).

[5] = tested on: melanoma cell lines A375, G361, SK-Mel-2, SK-Mel-5, and SK-Mel-28; assay: Dose titration, cell killing; assay type: cell-based, human; details: A375, 2-40 μM tested, 3 days; similar effect in G361, SK-Mel-2, SK-Mel-5, SK-Mel-28
Description: as §1
Dose titration experiments of small molecule compound FN1-8 was performed using the melanoma cell lines A375, G361, SK-Mel-2, SK-Mel-5, and SK-Mel-28. A 375 cells were plated in 6-well plates and incubated with DM SO (control) or 2 μM, 5 μM, 10 μM, 20 μM, and 40 μM of FN1-8, respectively, for 3 days. A dramatic and dose-dependent cell killing in this cell line was observed when FN1-8 was added at 10 μM or more (data not shown). […]

SMILES | % of apoptotic cells ([1]; H1299, 10 μM) [%] | % of apoptotic cells ([1]; H1299, 100 μM) [%] | cell killing effect [2] | uptake of FN1-5 relative to FN1-8 ([3]; i.p. injection) | time of uptake into plasma ([3]; i.p., 30 mg/kg) [min] | time within which plasma/serum concentration diminishes ([3]; i.p., 30 mg/kg) [h] | time after which dose-dependent cell killing effect is shown ([4]; A549, 10 μM and 20 μM) [days] | time by which cell killing effect is apparent ([4]; H322, 15 μM and 30 μM) [days] | time by which cell killing effect is apparent ([4]; H358, 15 μM and 30 μM) [days] | concentration at which dramatic and dose-dependent cell killing was observed [5] [µM]
O=C(NCCCCCO)C1C(c2ccccc2)=NN(c2ccccc2)C1c1ccccc1 (stereo not shown) [FN1-5, N-(5-Hydroxypentyl)-1,3,5-triphenyl-4,5-dihydro-pyrazole-4-carboxyamide] | 6.7 | 55.9 | dramatic cell killing effect | about 2 fold | ≤ 10 | ≤ 24 |  |  |  | 
O=C(NCCc1ccc(O)cc1)C1C(c2ccccc2)=NN(c2ccccc2)C1c1ccccc1 (stereo not shown) [FN1-8, N-(2-(4-Hydroxyphenyl)ethyl)-1,3,5-triphenyl-4,5-dihydro-pyrazole-4-carboxyamide] |  |  |  |  |  |  | 3 | ≤ 2 | ≤ 1 | ≥ 10
